Measured values as given in PMC6254971, “Antimalarial Activity of Ultra-Short Peptides” (Molecules, 2009).
Read-outs that look alike come from different tables or passages of the source. Non-standard residues stand in square brackets, D forms with d. Residues, ends and D or L forms follow the SMILES beside them. No end group written: not given here. *: point of attachment. Orn = NCCC[C@H](N)C(=O)O; Cbz = O=C(OCc1ccccc1)*; CH2F = FC*

What was measured:
malarial infected mice = conditions: four days of subcutaneous administration; cited from earlier work
P. falciparum = tested on: P. falciparum; design: method as in 6 sources, ref 23 = [23]; PMID 16723585; doi:10.1128/AAC.00022-06; 23. Parikh S. Liu J. Sijwali P. Gut J. Goldberg D.E. Rosenthal P.J. Antimalarial effects of human immunodeficiency virus type 1 protease inhibitors differ from those of the aspartic protease inhibitor ||| ref 24 = [24]; PMID 11172676; doi:10.2174/0929867013373787; 24. Meinke P.T. Liberator P. Histone deacetylase: A target for antiproliferative and antiprotozoal agents Current Med. Chem. 2001 8 211 235 10.2174/0929867013373787 11172676 ||| ref 12 = [12]; PMID 16643062; doi:10.1021/np050549h; 12. Thongtan J. Saenboonrueng J. Rachtawee P. Isaka M. An antimalarial tetrapeptide from the entomopathogenic fungus Hirsutella sp. BCC 1528 J. Nat. Prod. 2006 69 713 714 10.1021/np050549h 16643062 ||| ref 25 = [25]; PMID 18305429; doi:10.3390/molecules13020432; 25. Sathe M. Thavaselvam D. Srivastava A.K. Kaushik M.P. Synthesis and antimalarial evaluation of cyclic β-amino acid-containing dipeptides Molecules 2008 13 432 443 10.3390/molecules13020432 18305429 ||| ref 30, 31 = [30]; PMID 1939639; doi:10.1172/JCI115456; 30. Rosenthal P.J. Wollish W.S. Palmer J.T. Rasnick D. Antimalarial effects of peptide inhibitors of a Plasmodium falciparum cysteine proteinase J. Clin. Invest. 1991 88 1467 1472 10.1172/JCI115456 19 || [31]; PMID 8807047; doi:10.1128/aac.40.7.1600; 31. Rosenthal P.J. Olson J.E. Lee G.K. Palmer J.T. Klaus J.L. Rasnick D. Antimalarial effects of vinyl sulfone cysteine proteinase inhibitors Antimicrob. Agents Chemother. 1996 40 1600 1603 8807047 10 ||| ...; conditions: cited from earlier work; for IC50: read-out: IC50 against P. falciparum; for IC50 in vitro: maturation schizonts and total growth inhibition assays
P. berghei = tested on: P. berghei; design: method as in 2 sources, ref 29 = [29]; PMID 8917558; doi:10.1073/pnas.93.23.13143; 29. Darkin-Rattray S.J. Gurnett A.M. Myers R.W. Dulski P.M. Crumley T.M. Allocco J.J. Cannova C. Meinke P.T. Colletti S.L. Bednarek M.A. Singh S.B. Goetz M.A. Dombrowski A.W. Polishook J.D. Schmatz D. ||| ref 25 = [25]; PMID 18305429; doi:10.3390/molecules13020432; 25. Sathe M. Thavaselvam D. Srivastava A.K. Kaushik M.P. Synthesis and antimalarial evaluation of cyclic β-amino acid-containing dipeptides Molecules 2008 13 432 443 10.3390/molecules13020432 18305429; conditions: cited from earlier work
[1] = tested on: Plasmodium berghei schizonts (ANKA 2.34), chloroquine-sensitive; assay: microbe, parasite or virus in culture; conditions: for Chemosuppression of P. berghei schizont cultures (%): compound 200 μM, schizonts counted in 2,000 erythrocytes
Procedure: Mature P. berghei schizonts were prepared as described by Thathy and Menard. […] Parasites were incubated for 16 h at 37 °C as described. Chloroquine (C6628 Sigma Chloroquine diphosphate salt solid, ≥98% purity) was used as positive control. Samples of 0.5 mL of each culture were taken to prepare smears and used to count numbers of schizonts in 2,000 erythrocytes. The IC50 values of each compound were determined using concentrations of 5, 50, 100, and 200 µM, according to Khalid et al., and by extrapolation from the concentration response curve. The IC50 value represents the drug concentration producing a 50% reduction in the number of P. berghei schizonts (compared to drug-free control cultures).

[2] = tested on: trophozoite cysteine proteinase (TCP); design: method as in PMID 1939639, PMID 8807047; conditions: cited from earlier work
[3] = 16 h at 37 °C, duplicate, averaged
[4] = read-out: IC50 (50% reduction in the number of P. berghei schizonts), 16 h at 37 °C, concentrations 5, 50, 100, 200 µM, extrapolation from concentration response curve, duplicate, averaged

Molecule: morpholine urea (Mu)-Phe-HPh-CH2F
- cured malarial infected mice (malarial infected mice): 80%

Molecule: CC(C)(C)NC(=O)[C@@H]1C[C@@H]2CCCC[C@@H]2CN1C[C@@H](O)[C@H](Cc1ccccc1)NC(=O)[C@H](CC(N)=O)NC(=O)c1ccc2ccccc2n1 [saquinavir]
- inhibition of P. falciparum in vitro (P. falciparum): inhibit P. falciparum in vitro

Molecule: apicidin
- in vivo antimalarial activity against P. berghei (P. berghei): potent in vivo antimalarial agent
- MIC against P. falciparum (P. falciparum): 0.125 µg/mL

Molecule: pepstatin A
- IC50 (P. falciparum): 7.5 µM

Molecule: 2-(2-tert-butoxycarbonylamino-4-methylpentanoyl-amino)-cyclooctanecarboxylic acid methyl ester
- IC50 in vitro (P. falciparum): 3.87 µg/mL

Molecule: CC(C)[C@H](N)C(=O)N[C@@H](CCCCN)C(=O)N[C@@H](Cc1ccccc1)C(=O)N[C@@H](CCCN)C(=O)O [Compound 2, Val-Lys-Phe-Orn] (H-VKF[Orn]-OH)
- IC50 ([1]; 16 h): 10 µM

Molecule: CC(C)[C@H](NC(=O)[C@H](CCCN)NC(=O)[C@@H](N)Cc1ccccc1)C(=O)O [Compound 9, Phe-Orn-Val] (H-Phe-[Orn]-Val-OH)
- IC50 ([1]; 16 h): 120 µM

Molecule: NCCCC[C@H](N)C(=O)N[C@@H](Cc1ccccc1)C(=O)N[C@@H](Cc1ccccc1)C(=O)N[C@@H](CCCN)C(=O)O [Compound 5, Lys-Phe-Phe-Orn] (H-KFF[Orn]-OH)
- IC50 ([1]; 16 h): 2.57 µM

Molecule: HC-toxin I
- MIC against P. falciparum (P. falciparum): 0.031 µg/mL

Molecule: Cbz-Phe-Arg-CH2F [peptidylfluoromethyl ketone]
- inhibition of trophozoite cysteine proteinase [2]: very potent inhibitor

Molecule: CC[C@H](C)[C@H](N)C(=O)N[C@@H](CCCCN)C(=O)N[C@@H](Cc1ccccc1)C(=O)N[C@@H](CCCN)C(=O)O [Compound 1, Ile-Lys-Phe-Orn] (H-IKF[Orn]-OH)
- IC50 ([1]; 16 h): 32.4 µM

Molecule: 2-(2-tert-butoxycarbonylamino-3-phenyl-propionylamino)-cyclooctanecarboxylic acid methyl ester
- in vivo antimalarial activity against P. berghei (P. berghei): active in vivo
- IC50 in vitro (P. falciparum): 3.64 µg/mL

Molecule: CCN(CC)CCCC(C)Nc1ccnc2cc(Cl)ccc12 (stereo not shown) [Chloroquine]
- IC50 ([1]; Plasmodium berghei, 16 h, read-out: IC50 (50% reduction in the number of P. berghei schizonts)): 0.06 µM
- Chemosuppression of P. berghei schizont cultures (%) [1, 3]: 100%

Molecule: F[Orn]F[Orn] [Compound 4]
- Chemosuppression of P. berghei schizont cultures (%) [1, 3]: 85.94%
- IC50 [1, 4]: 3.31 µM

Molecule: CC(C)[C@H](NC(=O)[C@@H](N)CCCCN)C(=O)N1CCC[C@H]1C(=O)N[C@@H](CCCN)C(=O)O [Compound 7, Lys-Val-Pro-Orn] (H-KVP[Orn]-OH; N-terminus assumed)
- IC50 ([1]; 16 h): > 200 µM
- Chemosuppression of P. berghei schizont cultures (%) [1, 3]: 27.39%

Molecule: CC(C)[C@H](NC(=O)[C@@H](N)CCCCN)C(=O)N[C@@H](Cc1ccccc1)C(=O)N1CCC[C@H]1C(=O)O [Compound 8, Lys-Val-Phe-Pro] (H-KVFP-OH)
- IC50 [1, 4]: 51.3 µM

Molecule: apicidin A
- MIC against P. falciparum (P. falciparum): 0.125 µg/mL

Molecule: COC(=O)N[C@H](C(=O)N[C@@H](Cc1ccccc1)[C@@H](O)CN(Cc1ccc(-c2ccccn2)cc1)NC(=O)[C@@H](NC(=O)OC)C(C)(C)C)C(C)(C)C [atazanavir]
- inhibition of P. falciparum in vitro (P. falciparum): inhibit P. falciparum in vitro

Molecule: CC(C)[C@H](NC(=O)[C@H](CCCCN)NC(=O)[C@H](Cc1ccccc1)NC(=O)[C@@H](N)CCCN)C(=O)O [Compound 6, Orn-Phe-Lys-Val] (H-[Orn]FKV-OH; N-terminus assumed)
- IC50 ([1]; 16 h): > 200 µM
- Chemosuppression of P. berghei schizont cultures (%) [1, 3]: 26.58%
- antimalarial activity in words (P. berghei schizont cultures) ([1]; in vitro, 16 h): inactive

Molecule: NCCCC[C@H](N)C(=O)N[C@@H](CCCN)C(=O)N[C@@H](Cc1ccccc1)C(=O)N[C@@H](CCCN)C(=O)O [Compound 3, Lys-Orn-Phe-Orn] (H-K[Orn]F[Orn]-OH)
- IC50 ([1]; 16 h): 13.5 µM

Molecule: hirsutellic A acid
- IC50 (P. falciparum): 8 µM
